Data as given in ChEMBL document CHEMBL5365544, “Design, synthesis of auristatins-glucuronide conjugates targeting the β-glucuronidase in tumor microenvironment” (Bioorg Med Chem Lett, 2023).
Activity calls are given as the source filed them. The rule behind the calls is not given here.

Legend:
[1] = Chemical stability of compound in phosphate buffer at pH 7.4 for 37 degC assessed as degradation measured after 48 hrs by HPLC method; format: physicochemical; conditions: pH 7.4, 48 h
[2] = Stability of compound in bovine serum solution for 37 degC assessed as degradation measured after 48 hrs by HPLC method; format: ADME, cell-free, Bos taurus; conditions: cattle
HeLa [3] = test: Antiproliferative activity against human HeLa cells assessed as inhibition of cell growth; format: functional, cell-based
A549 [4] = test: Antiproliferative activity against human A549 cells assessed as inhibition of cell growth; format: functional, cell-based
HCT-116 [5] = test: Antiproliferative activity against human HCT-116 cells assessed as inhibition of cell growth; format: functional, cell-based
HeLa [6] = test: Antiproliferative activity against human HeLa cells assessed as inhibition of cell growth in presence of beta-glucuronidase; format: functional, cell-based
A549 [7] = test: Antiproliferative activity against human A549 cells assessed as inhibition of cell growth in presence of beta-glucuronidase; format: functional, cell-based
HCT-116 [8] = test: Antiproliferative activity against human HCT-116 cells assessed as inhibition of cell growth in presence of beta-glucuronidase; format: functional, cell-based
[9] = Chemical stability of compound in phosphate buffer at pH 7.4 for 37 degC assessed as drug degradation measured after 20 mins in presence of beta-glucuronidase by HPLC method relative to control; format: physicochemical; conditions: phosphate buffer with beta-glucuronidase, read-out: Drug degradation
[10] = Chemical stability of compound in phosphate buffer at pH 7.4 for 37 degC assessed as drug degradation measured after 2 hrs in presence of beta-glucuronidase by HPLC method; format: physicochemical; conditions: pH 7.4, 2 h
HCT-116 [11] = test: Antitumor activity against human HCT-116 cells xenografted in iv dosed BALB/C mouse assessed as tumor growth inhibition administered every 5 days; format: functional, organism-based; conditions: dose 2-4 mg/kg, time 5.0 day
[12] = Toxicity in BALB/c mouse assessed as body weight loss at 2 to 4 mg/kg, iv administered every 3 days; format: organism-based; conditions: in vivo, 72 h, dose 2-4 mg/kg, time 3 day
[13] = Toxicity in BALB/c mouse assessed as side effect at 2 to 4 mg/kg, iv administered every 3 days; format: organism-based; conditions: in vivo, 72 h, dose 2-4 mg/kg, time 3 day
HCT-116 [14] = test: Antitumor activity against human HCT-116 cells xenografted in BALB/C mouse assessed as tumor growth inhibition at 0.5 mg/kg, iv administered every 5 days; format: functional, organism-based; conditions: time 5.0 day

Stability [1]	Stability [2]	IC50 (HeLa [3]) [nM]	IC50 (A549 [4]) [nM]	IC50 (HCT-116 [5]) [nM]	IC50 (HeLa [6]) [nM]	IC50 (A549 [7]) [nM]	IC50 (HCT-116 [8]) [nM]	SMILES	metabolised at 20 min [9] [%]	Stability [10]	Activity (HCT-116 [11])	Activity [12]	Activity [13]	Activity (HCT-116 [14])
Stable	Stable	990	1020	1110	8.3	9.68	9.11	CC[C@H](C)[C@@H]([C@@H](CC(=O)N1CCC[C@H]1[C@H](OC)[C@@H](C)C(=O)N[C@H](C)[C@@H](OC(=O)N(C)CCN(C)C(=O)OCc1ccc(O[C@@H]2O[C@H](C(=O)O)[C@@H](O)[C@H](O)[C@H]2O)c([N+](=O)[O-])c1)c1ccc(F)cc1)OC)N(C)C(=O)[C@@H](NC(=O)[C@H](C(C)C)N(C)C)C(C)C	–	–	–	–	–	–
Stable	Stable	1650	1520	1490	5.73	6.38	6.61	CC[C@H](C)[C@@H]([C@@H](CC(=O)N1CCC[C@H]1[C@H](OC)[C@@H](C)C(=O)N[C@H](C)[C@@H](OC(=O)N(C)CCN(C)C(=O)OCc1ccc(O[C@@H]2O[C@H](C(=O)O)[C@@H](O)[C@H](O)[C@H]2O)c([N+](=O)[O-])c1)c1ccccc1)OC)N(C)C(=O)[C@@H](NC(=O)[C@H](C(C)C)N(C)C)C(C)C	48	Unstable	Dose-Dependent Effect	Non-Toxic	–	–
–	–	4.87	5.52	6.13	–	–	–	CC[C@H](C)[C@@H]([C@@H](CC(=O)N1CCC[C@H]1[C@H](OC)[C@@H](C)C(=O)N[C@H](C)[C@@H](O)c1ccc(F)cc1)OC)N(C)C(=O)[C@@H](NC(=O)[C@H](C(C)C)N(C)C)C(C)C	–	–	–	–	–	–

SMILES	Stability [1]	Stability [2]	IC50 (HeLa [3]) [nM]	IC50 (A549 [4]) [nM]	IC50 (HCT-116 [5]) [nM]	IC50 (HeLa [6]) [nM]	IC50 (A549 [7]) [nM]	IC50 (HCT-116 [8]) [nM]	metabolised at 20 min [9] [%]	Stability [10]	Activity (HCT-116 [11])	Activity [12]	Activity [13]	Activity (HCT-116 [14])
CC[C@H](C)[C@@H]([C@@H](CC(=O)N1CCC[C@H]1[C@H](OC)[C@@H](C)C(=O)N[C@H](C)[C@@H](O)c1ccccc1)OC)N(C)C(=O)[C@@H](NC(=O)[C@H](C(C)C)N(C)C)C(C)C	–	–	4.89	5.03	4.96	–	–	–	37	Unstable	–	–	Non-Toxic	Active
